Laboratory results: patent EP4623928A1, “GLP-1R ANTAGONISTS FOR THE TREATMENT OF CANCER” (Fiorina, Paolo, priority 2024, dated 2025)

Key:
[1] = tested on: MC38 colorectal cancer cells; assay: Colorectal tumour model (MC38 cells injected into the distal posterior rectum); assay type: in vivo, C57BL/6 mice
Procedure: Female C57BL/6 mice were anesthetized with 100 mg/kg of ketamine and 50 mg/kg of xylazine. Next, by using a 29-gauge syringe, 2×10^5 MC38 cells were injected submucosally into the distal posterior rectum in a final volume of […], as described previously (36, 37). MC38-injected mice were randomly assigned into 2 groups: (i) Exe-9-treated group (n=8), where all mice received an intraperitoneal injection of 2 µg of Exendin-9-39 (Exe-9) starting by Day1 for a total of 14 days; (ii) untreated-group (n=6), where all mice received an IP injection of PBS starting by day 1 and for a total of 14 days. Tumour growth was visually monitored daily. After animals' sacrifice, tumours were measured by a digital calliper measuring tumour length, width, and height and were weighted using a digital scale. Procedures involving mice wereb conformed to institutional guidelines in agreement with national and international law and were approved by the ethics committee by the Ministry of Health.

CD4^+ and CD8^+ T cells = assay: Cell death and proliferation of CD4+ and CD8+ T cells in splenocytes activated with anti-CD3/anti-CD28 (FACS); assay type: cell-based, C57BL/6 mice
islet allografts = assay: Murine islet allotransplantation (BALB/c islets into STZ-treated C57BL/6 mice); assay type: in vivo
Procedure: Pancreatic islets from BALB/c mice were isolated by collagenase digestion and density gradient separation as previously described (33, 34). Subsequently, four to five hundred islets were inoculated under the renal capsule of each C57BL/6 recipient rendered diabetic with streptozotocin (STZ) (200 mg/kg, administered i.p. Sigma-Aldrich). Islet transplantation success was confirmed by glycaemia normalization. Rejection of islet allografts was defined as blood glucose levels >250 mg/dl for at least 2 consecutive days (35). Treatment modalities were the following: transplanted mice were intraperitoneally injected according to the following protocols: 1) Exendin-4 (Exe-4) (Amylin Pharmaceuticals, San Diego, CA -USA) 0.2pg twice/day for two weeks after transplant; 2) Exe-4 0.2pg twice/day from the day before until two weeks after transplant; 3) Exendin-4 2µg twice/day from the day before until two weeks after transplant; 4) Exendin-4 2µg twice/day + Exendin-9-39 (Exe-9) (Sigma-Aldrich) 2µg twice/day from the day before until two weeks after transplant; 5) Exendin-4 2µg twice/day from the day before until two weeks after transplant + Rapamycin 0.1mg/die for two weeks; 6) saline 0.5ml twice/day for two weeks. The follow-up of the transplanted mice was for 100 days.

[2] = tested on: mitogen-stimulated murine splenocytes; assay: IFN-γ ELISpot assay on anti-CD3/anti-CD28 stimulated splenocytes; assay type: cell-based, C57BL/6 mice; conditions: Exe-9 added to Exe-4, 0.1, 1 or 10 nM, 24 hours
Procedure: An ELISPOT assay was used to measure the number of IFN-γ-producing cells according to the manufacturer's protocol (BD Biosciences) as previously performed by our group (39). To test the role of GLP-1R-driven immunity on the anti-CD3/28 non-autoimmune specific response, 1×10^6 splenocytes isolated from C57BL/6 mice were cultured in a microwell plate (BD Biosciences) coated with IFN-y capture antibody (Ab) in the presence of the following soluble anti-CD3 and anti-CD28 at 0,5ug/ml for 24 hours. Exe-4 and/or Exe-4+Exe-9-39 at concentrations of 0.1, 1 or 10 nM were added to the culture. After 24 hours, bound secondary Ab was visualized using HRP-streptavidin and the AEC substrate kit (BD Biosciences). Spots were counted using an Immunospot analyzer (Cellular Technology Ltd., Cleveland, OH) and expressed as the number of cytokine-producing spots per 1×10^6 cells. After 24hours, ELISpot plates were developed and acquired on an ELISpot reader, as previously described.

Cardiac allografts = assay: Murine cardiac allotransplantation (BALB/c hearts into C57BL/6 mice); assay type: in vivo
Procedure: Cardiac allografts from BALB/c mice were transplanted intra-abdominally in C57BL/6 mice using microsurgical techniques as described (31). Rejection was determined as complete cessation of cardiac contractility and was confirmed by direct visualization. Transplanted mice were intraperitoneally injected according to the following protocols: 1) Exendin-4 (Exe-4) (Amylin Pharmaceuticals, San Diego, CA - USA) 0.2pg twice/day for two weeks after transplant; 2) Exe-4 0.2pg twice/day from the day before until two weeks after transplant; 3) Exe-4 2µg twice/day from the day before until two weeks after transplant; 4) Exe-4 2µg twice/day + Exendin-9-39 (Exe-9) (Sigma-Aldrich) 2µg twice/day from the day before until two weeks after transplant; 5) Exe-4 2µg twice/day from the day before until two weeks after transplant + Rapamycin 0.1mg/die for two weeks; 6) saline 0.5ml twice/day for two weeks.

[3] = 2 µg of Exe-9 once a day for 14 days, vs untreated
[4] = Exe-9-treated group vs untreated
[5] = co-administration Exe-4 2µg twice/day + Exe-9 2µg twice/day
[6] = splenic, Exe-9 co-administration with Exe-4

## Exendin-9-39 [Exe-9]
[1]; 2 µg of Exe-9 once a day for 14 days, intraperitoneal, vs untreated (PBS)
  tumour size: significantly reduced
[1]; [3]
  colon length: no differences
  mesenteric lymph nodes volume: significantly reduced
  spleen weight: no differences
[1]; [4]
  CD3^+ and CD8^+ effector memory T cells within the spleen and mesenteric lymph nodes: no major differences
  tumor infiltration of CD3^+ T cells (FACS): increased infiltration
  tumor infiltration of activated effector memory CD8^+ T cells (FACS): increased infiltration
[1]; Exe-9-treated group vs untreated, immunohistochemistry
  intratumoral infiltration of CD3^+ T cells (pathological examination): significant intratumoral infiltration
CD4^+ and CD8^+ T cells; Exe-9 added to Exe-4, anti-CD3/anti-CD28 activated splenocytes
  effect of Exe-9 on Exe-4-induced cell death: reduced the effect
CD4^+ and CD8^+ T cells; addition of antagonist Exe-9 to Exe-4, anti-CD3/CD28 Abs (Fig. 13D-E)
  percentages of proliferating (or cell trace positive) CD4^+ and CD8^+ T cells: No differences
Islet allografts; [5]
  effect of Exe-9 on the beneficial effects of Exe-4 (islet allograft survival): partly abolished
Islet allografts; islet allograft at day 14, co-administration of Exe-9 with Exe-4
  graft infiltration (Hematoxylin and eosin staining): restored the graft infiltration
Islet allografts; [6]
  CD8^+ effector cell number: restored CD8^+ effector cell number
  Tregs: did not affect Tregs
[2]
  effect of Exe-9 on the Exe-4-induced reduction of IFN-y producing cells: significantly hampered the overseen immunoregulatory effect of Exe-4
Cardiac allografts; [5]
  effect of Exe-9 on the beneficial effects of Exe-4 (heart allograft survival): partly abolished
Cardiac allografts; day-7 heart allograft, Exe-9 co-administration with Exe-4
  effect of Exe-9 on the Exe-4-induced decrease of graft infiltration: abolished
Cardiac allografts; [6]
  effect of Exe-9 on the Exe-4-induced decrease of CD4^+ and CD8^+ effector T cells: reverted
